How the values were obtained:
AXL = molecular target: T1, AXL (Homo sapiens, UniProt P30530); test: AXL autophosphorylation ELISA in A-172 cells; assay type: cell-based; conditions: cellular activity, Gas6-stimulated, phospho-AXL ELISA
T1 construct: endogenous in cells; host or cells: A-172 glioblastoma cells (ATCC #CRL-1620)
T1 sequence (P30530 26-894): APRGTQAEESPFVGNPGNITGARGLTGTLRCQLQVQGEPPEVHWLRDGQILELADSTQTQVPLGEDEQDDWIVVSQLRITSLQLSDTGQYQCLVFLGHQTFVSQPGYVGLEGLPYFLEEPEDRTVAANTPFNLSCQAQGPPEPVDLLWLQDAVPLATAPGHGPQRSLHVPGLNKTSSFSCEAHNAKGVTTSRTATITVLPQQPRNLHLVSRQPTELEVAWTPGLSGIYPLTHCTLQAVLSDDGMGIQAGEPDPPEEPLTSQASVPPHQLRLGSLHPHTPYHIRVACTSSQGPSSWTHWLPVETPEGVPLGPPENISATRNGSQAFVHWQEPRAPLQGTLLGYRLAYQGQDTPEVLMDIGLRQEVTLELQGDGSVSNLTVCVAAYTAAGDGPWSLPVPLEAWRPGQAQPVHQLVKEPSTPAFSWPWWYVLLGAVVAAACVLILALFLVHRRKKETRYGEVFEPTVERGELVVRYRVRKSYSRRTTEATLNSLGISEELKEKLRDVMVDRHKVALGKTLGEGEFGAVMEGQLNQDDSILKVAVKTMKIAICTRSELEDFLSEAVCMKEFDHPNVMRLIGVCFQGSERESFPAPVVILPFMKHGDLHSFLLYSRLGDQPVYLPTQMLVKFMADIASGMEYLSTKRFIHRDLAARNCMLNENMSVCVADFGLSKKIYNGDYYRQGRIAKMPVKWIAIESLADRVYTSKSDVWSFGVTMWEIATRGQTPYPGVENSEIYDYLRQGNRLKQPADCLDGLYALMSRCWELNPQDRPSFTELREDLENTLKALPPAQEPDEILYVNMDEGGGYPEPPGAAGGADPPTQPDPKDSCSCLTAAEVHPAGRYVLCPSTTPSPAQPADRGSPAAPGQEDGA
Procedure, shortened: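 Serum-starved (24 h) A-172 glioblastoma cells got an 8-point compound series (0.3% DMSO) for 1 h, then 1 μg/mL human Gas6 for 15 min. Lysate phospho-AXL quantified by ELISA against phospho-AXL standard, normalized to DMSO and reference-inhibitor controls; IC50 by 4-parameter logistic fit.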

Met = Met (Homo sapiens, UniProt P08581); test: Human Met kinase assay (33P-phosphoryl transfer radiometric, KinaseProfiler); design: Human Met (residues R974-S1390 with A1209G and V1290L, 3.4 nM); purchased Eurofins Pharma Discovery Services UK Limited (KinaseProfiler service); conditions: biochemical activity; 10 μM ATP; read-out: c-Met IC50
Sequence of Met (P08581 974-1390): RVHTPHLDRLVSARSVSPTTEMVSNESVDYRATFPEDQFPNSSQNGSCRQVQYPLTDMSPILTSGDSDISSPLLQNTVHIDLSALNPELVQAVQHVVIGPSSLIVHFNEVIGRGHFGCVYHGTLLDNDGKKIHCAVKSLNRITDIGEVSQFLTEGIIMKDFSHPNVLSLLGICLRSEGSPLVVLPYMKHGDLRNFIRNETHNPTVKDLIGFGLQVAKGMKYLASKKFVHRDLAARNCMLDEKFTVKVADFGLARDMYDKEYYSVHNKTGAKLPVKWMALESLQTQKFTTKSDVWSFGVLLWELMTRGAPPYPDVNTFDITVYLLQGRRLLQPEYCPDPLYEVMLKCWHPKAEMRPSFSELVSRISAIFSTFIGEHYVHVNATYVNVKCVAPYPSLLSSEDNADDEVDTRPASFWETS
Description: Kinase activity and compound inhibition were investigated using the ^33P-Phosphoryl transfer radiometric kinase assay, performed using the KinaseProfiler™ service of Eurofins Pharma Discovery Services UK Limited. Dose-response experiments were performed using nine compound concentrations in a 96-well microtiter plate. For each assay, all compounds were prepared to a 50× final assay concentration (50 μM) in 100% DMSO, then diluted in a half-log series, with the final top concentration at 1 μM. This working stock of the compound was added to the assay well as the first component in the reaction, followed by the remaining components as detailed in the following assay protocols below. The positive control wells (100% kinase activity) contain all components of the reaction including 2% DMSO (control for solvent effects), except the compound of interest. Blank wells contain all components of the reaction, with the reference inhibitor, staurosporine. This reference compound was used to abolish kinase activity and generated the 0% kinase activity base-line. IC50 values were calculated by nonlinear regression analysis using the sigmoidal dose-response (variable slope) curve fit on XLFit version 5.3 (ID Business Solutions).
Human Met (residues R974-S1390 with A1209G and V1290L, 3.4 nM) was incubated with 8 mM MOPS pH 7.0, 0.2 mM EDTA, 250 μM KKKGQEEEYVFIE, 1 mM sodium orthovanadate, 5 mM […], 10 mM magnesium acetate, and 10 μM [γ-^33P-ATP]. The reaction was initiated by the addition of the Mg/ATP mix. After incubation for 40 minutes at room temperature, the reaction was stopped by the addition of phosphoric acid to a concentration of 0.5%. A reaction aliquot of 10 μL was then spotted onto a P30 filtermat and washed four times for 4 minutes in 0.425% phosphoric acid and once in methanol prior to drying and scintillation counting. Incorporated ^33P was measured using the Wallac Microbeta scintillation counter (Perkin Elmer).

IC50 (AXL) | IC50 (Met) | Structure (SMILES)
≤ 10 nM | ≤ 10 nM | O=C(Nc1ccc(F)cc1)C1(C(=O)Nc2ccc(Oc3ccnc4cc(-c5cnn(C(F)F)c5)ccc34)cc2)CC1 [Compound 13, 1-N-[4-[7-[1-(Difluoromethyl)pyrazol-4-yl]quinolin-4-yl]oxyphenyl]-1-N′-(4-fluorophenyl)cyclopropane-1,1-dicarboxamide]
≤ 10 nM | ≤ 10 nM | O=C(Nc1ccc(F)cc1)C1(C(=O)Nc2ccc(Oc3ccnc4cc(-c5ccncc5)ccc34)cc2)CC1 [Compound 26, 1-N′-(4-Fluorophenyl)-1-N-[4-(7-pyridin-4-ylquinolin-4-yl)oxyphenyl]cyclopropane-1,1-dicarboxamide]
10 to 100 nM | ≤ 10 nM | O=C(Nc1ccc(F)cc1)C1(C(=O)Nc2ccc(Oc3ccnc4cc(-c5ncc[nH]5)ccc34)cc2)CC1 [Compound 74, 1-N′-(4-Fluorophenyl)-1-N-[4-[7-(1H-imidazol-2-yl)quinolin-4-yl]oxyphenyl]cyclopropane-1,1-dicarboxamide]
≤ 10 nM | ≤ 10 nM | O=C(Nc1ccc(F)cc1)C1(C(=O)Nc2ccc(Oc3ccnc4cc(-c5cnoc5)ccc34)cc2)CC1 [Compound 57, 1-N′-(4-Fluorophenyl)-1-N-[4-[7-(1,2-oxazol-4-yl)quinolin-4-yl]oxyphenyl]cyclopropane-1,1-dicarboxamide]
10 to 100 nM | ≤ 10 nM | O=C(Nc1ccc(F)cc1)C1(C(=O)Nc2ccc(Oc3ccnc4cc(-c5cccnc5)ccc34)cc2)CC1 [Compound 25, 1-N′-(4-Fluorophenyl)-1-N-[4-(7-pyridin-3-ylquinolin-4-yl)oxyphenyl]cyclopropane-1,1-dicarboxamide]
≤ 10 nM | ≤ 10 nM | O=C(Nc1ccc(F)cc1)C1(C(=O)Nc2ccc(Oc3ccnc4cc(-c5ccn[nH]5)ccc34)cc2)CC1 [Compound 68, 1-N′-(4-Fluorophenyl)-1-N-[4-[7-(1H-pyrazol-5-yl)quinolin-4-yl]oxyphenyl]cyclopropane-1,1-dicarboxamide]
≤ 10 nM | ≤ 10 nM | O=C(Nc1ccc(F)cc1)C1(C(=O)Nc2ccc(Oc3ccnc4cc(-c5cn[nH]c5)ccc34)cc2)CC1 [Compound 67, 1-N′-(4-Fluorophenyl)-1-N-[4-[7-(1H-pyrazol-4-yl)quinolin-4-yl]oxyphenyl]cyclopropane-1,1-dicarboxamide]
10 to 100 nM | ≤ 10 nM | O=C(Nc1ccc(F)cc1)C1(C(=O)Nc2ccc(Oc3ccnc4cc(-c5cncnc5)ccc34)cc2)CC1 [Compound 27, 1-N′-(4-Fluorophenyl)-1-N-[4-(7-pyrimidin-5-ylquinolin-4-yl)oxyphenyl]cyclopropane-1,1-dicarboxamide]
10 to 100 nM | 10 to 100 nM | O=C(Nc1ccc(F)cc1)C1(C(=O)Nc2ccc(Oc3ccnc4cc(-c5ccccn5)ccc34)cc2)CC1 [Compound 85, 1-N′-(4-Fluorophenyl)-1-N-[4-(7-pyridin-2-ylquinolin-4-yl)oxyphenyl]cyclopropane-1,1-dicarboxamide]
≤ 10 nM | ≤ 10 nM | O=C(Nc1ccc(F)cc1)C1(C(=O)Nc2ccc(Oc3ccnc4cc(-c5cnn(CCO)c5)ccc34)cc2)CC1 [Compound 18, 1-N′-(4-Fluorophenyl)-1-N-[4-[7-[1-(2-hydroxyethyl)pyrazol-4-yl]quinolin-4-yl]oxyphenyl]cyclopropane-1,1-dicarboxamide]

The next lines start with the compound.

Structure (SMILES) | IC50 (AXL) | IC50 (Met)
Cn1nccc1-c1ccc2c(Oc3ccc(NC(=O)C4(C(=O)Nc5ccc(F)cc5)CC4)cc3)ccnc2c1 [Compound 54, 1-N′-(4-Fluorophenyl)-1-N-[4-[7-(2-methylpyrazol-3-yl)quinolin-4-yl]oxyphenyl]cyclopropane-1,1-dicarboxamide] | 10 to 100 nM | ≤ 10 nM
Cn1cc(-c2ccc3c(Oc4ccc(NC(=O)C5(C(=O)N6CCc7cc(F)ccc76)CC5)cc4)ccnc3c2)cn1 [Compound 81, 1-(5-Fluoro-2,3-dihydroindole-1-carbonyl)-N-[4-[7-(1-methylpyrazol-4-yl)quinolin-4-yl]oxyphenyl]cyclopropane-1-carboxamide] | 10 to 100 nM | ≤ 10 nM
COc1cc2c(Oc3ccc(NC(=O)C4(C(=O)Nc5ccc(F)cc5)CC4)cc3)ccnc2cc1-c1cnn(C)c1 [Compound 76, 1-N′-(4-Fluorophenyl)-1-N-[4-[6-methoxy-7-(1-methylpyrazol-4-yl)quinolin-4-yl]oxyphenyl]cyclopropane-1,1-dicarboxamide] | ≤ 10 nM | ≤ 10 nM
O=C(Nc1ccc(F)cc1)C1(C(=O)Nc2ccc(Oc3ccnc4cc(C5CCNC5)ccc34)cc2)CC1 (stereo not shown) [Compound 83, 1-N′-(4-Fluorophenyl)-1-N-[4-(7-pyrrolidin-3-ylquinolin-4-yl)oxyphenyl]cyclopropane-1,1-dicarboxamide] | 100 to 300 nM | ≤ 10 nM
CC1Cc2cc(F)ccc2N1C(=O)C1(C(=O)Nc2ccc(Oc3ccnc4cc(-c5cnn(C)c5)ccc34)cc2)CC1 (stereo not shown) [Compound 80, 1-(5-Fluoro-2-methyl-2,3-dihydroindole-1-carbonyl)-N-[4-[7-(1-methylpyrazol-4-yl)quinolin-4-yl]oxyphenyl]cyclopropane-1-carboxamide] | 10 to 100 nM | 10 to 100 nM
Cn1ccc(-c2ccc3c(Oc4ccc(NC(=O)C5(C(=O)Nc6ccc(F)cc6)CC5)cc4)ccnc3c2)n1 [Compound 17, 1-N′-(4-Fluorophenyl)-1-N-[4-[7-(1-methylpyrazol-3-yl)quinolin-4-yl]oxyphenyl]cyclopropane-1,1-dicarboxamide] | 10 to 100 nM | ≤ 10 nM
Cc1cc2c(Oc3ccc(NC(=O)C4(C(=O)Nc5ccc(F)cc5)CC4)cc3)ccnc2cc1-c1cnn(C)c1 [Compound 78, 1-N′-(4-Fluorophenyl)-1-N-[4-[6-methyl-7-(1-methylpyrazol-4-yl)quinolin-4-yl]oxyphenyl]cyclopropane-1,1-dicarboxamide] | 10 to 100 nM | ≤ 10 nM
CNC(=O)c1cc2c(Oc3ccc(NC(=O)C4(C(=O)Nc5ccc(F)cc5)CC4)cc3)ccnc2cc1-c1cnn(C)c1 [Compound 77, 1-N′-(4-Fluorophenyl)-1-N-[4-[6-(methylcarbamoyl)-7-(1-methylpyrazol-4-yl)quinolin-4-yl]oxyphenyl]cyclopropane-1,1-dicarboxamide] | 10 to 100 nM | ≤ 10 nM
Cc1cc(F)cc(C)c1NC(=O)C1(C(=O)Nc2ccc(Oc3ccnc4cc(-c5cnn(C)c5)ccc34)cc2)CC1 [Compound 82, 1-N′-(4-Fluoro-2,6-dimethylphenyl)-1-N-[4-[7-(1-methylpyrazol-4-yl)quinolin-4-yl]oxyphenyl]cyclopropane-1,1-dicarboxamide] | 10 to 100 nM | 10 to 100 nM
O=C(Nc1ccc(F)cc1)C1(C(=O)Nc2ccc(Oc3ccnc4cc(-c5cnn(C6CCNCC6)c5)ccc34)cc2)CC1 [Compound 60, 1-N′-(4-Fluorophenyl)-1-N-[4-[7-(1-piperidin-4-ylpyrazol-4-yl)quinolin-4-yl]oxyphenyl]cyclopropane-1,1-dicarboxamide] | ≤ 10 nM | ≤ 10 nM

Source: US12503438B2, “Compounds for the treatment of kinase-dependent disorders” (Exelixis, Inc., priority 2019, dated 2025)
